Data on 11 compounds can be found in PubChem BioAssay AID256 (DTP/NCI, 2004).

For this experiment, the system named is CD2F1 mice, L1210 leukemia ip, survival T/C. Kind of experiment: NCI In Vivo Anticancer Drug Screen. Data for tumor model L1210 Leukemia (intraperitoneal) in CD2F1 (CDF1) mice. The settings on record: higher = longer survival. A digest of the protocol:
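Each value reflects a quotient of treated over vehicle control outcomes in mice with a transplanted tumor.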

Setting [1] is: endpoint: mean survival time, dose: 50.0 mg/kg/injection, schedule: Q01DX009 (ip), vehicle: saline with Tween-80.
Setting [2] is: endpoint: mean survival time, dose: 100.0 mg/kg/injection, schedule: Q01DX009 (ip), vehicle: saline with Tween-80.
Setting [3] is: endpoint: mean survival time, dose: 100.0 mg/kg/injection, schedule: Q04DX003 (ip), vehicle: saline with Tween-80.
Setting [4] is: endpoint: mean survival time, dose: 400.0 mg/kg/injection, schedule: Q04DX003 (ip), vehicle: saline with Tween-80.
[5] abbreviates: endpoint: mean survival time, dose: 200.0 mg/kg/injection, schedule: Q04DX003 (ip), vehicle: saline with Tween-80.

Where “and” joins values, the source holds several entries; their conditions need not be identical. Identical values can stand only once. Toxic doses and inconclusive results are not listed.

`Cn1cnc([N+](=O)[O-])c1Sc1ncn[nH]1`: the T/C runs as follows: (endpoint: mean survival time, dose: 12.5 mg/kg/injection, schedule: Q01DX009 (ip), vehicle: saline) 104 % of control; (endpoint: mean survival time, dose: 12.5 mg/kg/injection, schedule: Q01DX009 (ip), vehicle: suspension in saline) 101 % of control; (endpoint: mean survival time, dose: 25.0 mg/kg/injection, schedule: Q01DX009 (ip), vehicle: saline) 107 % of control; (endpoint: mean survival time, dose: 25.0 mg/kg/injection, schedule: Q01DX009 (ip), vehicle: suspension in saline) 104 % of control; (endpoint: mean survival time, dose: 50.0 mg/kg/injection, schedule: Q01DX009 (ip), vehicle: saline) 104 % of control; (endpoint: mean survival time, dose: 50.0 mg/kg/injection, schedule: Q01DX009 (ip), vehicle: suspension in saline) 104 % of control. Further, the T/C is, setting by setting: (endpoint: mean survival time, dose: 100.0 mg/kg/injection, schedule: Q01DX009 (ip), vehicle: saline) 102 % of control; (endpoint: mean survival time, dose: 100.0 mg/kg/injection, schedule: Q01DX009 (ip), vehicle: suspension in saline) 106 % of control; (endpoint: mean survival time, dose: 200.0 mg/kg/injection, schedule: Q01DX009 (ip), vehicle: saline) 107 % of control; (endpoint: mean survival time, dose: 400.0 mg/kg/injection, schedule: Q01DX009 (ip), vehicle: saline) 104 % of control.
Regarding `CN(Cc1cnc2nc(N)nc(N)c2n1)c1ccc(C(=O)NC(CCC(=O)O)C(=O)NCC(=O)O)cc1` (stereo not given), the T/C (endpoint: mean survival time, dose: 1.0 mg/kg/injection, schedule: Q01DX009 (ip), vehicle: sodium bicarbonate) was 103 % of control; the T/C (endpoint: mean survival time, dose: 2.0 mg/kg/injection, schedule: Q01DX009 (ip), vehicle: sodium bicarbonate) is 109 % of control; the T/C (endpoint: mean survival time, dose: 5.0 mg/kg/injection, schedule: Q01DX009 (ip), vehicle: sodium bicarbonate) was 102 % of control; the T/C (endpoint: mean survival time, dose: 10.0 mg/kg/injection, schedule: Q01DX009 (ip), vehicle: sodium bicarbonate) is 108 % of control.
Consider `O=C1c2ccccc2C(C(O)(C(F)(F)F)C(F)(F)F)c2ccccc21`, for which the T/C by setting is: (endpoint: mean survival time, dose: 12.5 mg/kg/injection, schedule: Q01DX009 (ip), vehicle: saline with Tween-80) 100 % of control; (endpoint: mean survival time, dose: 25.0 mg/kg/injection, schedule: Q01DX009 (ip), vehicle: saline with Tween-80) 98 % of control; under setting [1], 96 % of control.
In the case of `CCCCCCCCCCCC(=O)NC(=S)Nc1cc(Cl)ccc1Cl`, the T/C (endpoint: mean survival time, dose: 50.0 mg/kg/injection, schedule: Q01DX001 (ip), vehicle: saline with Tween-80) is 89 % of control; the T/C (endpoint: mean survival time, dose: 50.0 mg/kg/injection, schedule: Q04DX003 (ip), vehicle: saline with Tween-80) is 92 % of control; the T/C (endpoint: mean survival time, dose: 100.0 mg/kg/injection, schedule: Q01DX001 (ip), vehicle: saline with Tween-80) was 89 % of control; the T/C under setting [2] is 86 % of control and 94 % of control; the T/C (endpoint: mean survival time, dose: 100.0 mg/kg/injection, schedule: Q04DX002 (ip), vehicle: saline with Tween-80) is 98 % of control; the T/C under setting [3] was 92 % of control. The T/C is, setting by setting: (endpoint: mean survival time, dose: 200.0 mg/kg/injection, schedule: Q01DX001 (ip), vehicle: saline with Tween-80) 92 % of control; (endpoint: mean survival time, dose: 200.0 mg/kg/injection, schedule: Q01DX009 (ip), vehicle: saline with Tween-80) 86 % of control and 92 % of control; (endpoint: mean survival time, dose: 200.0 mg/kg/injection, schedule: Q04DX002 (ip), vehicle: saline with Tween-80) 98 % of control; (endpoint: mean survival time, dose: 400.0 mg/kg/injection, schedule: Q04DX002 (ip), vehicle: saline with Tween-80) 98 % of control; under setting [4], 86 % of control.
As for `N#Cc1c(-c2ccc(F)cc2)c(-c2ccc(F)cc2)nn(CCO)c1=O`, the T/C (endpoint: median survival time, dose: 12.5 mg/kg/injection, schedule: Q01DX005 (ip), vehicle: distilled water + Tween-80) was 98 % of control and 100 % of control; the T/C (endpoint: median survival time, dose: 25.0 mg/kg/injection, schedule: Q01DX005 (ip), vehicle: distilled water + Tween-80) was 98 % of control and 100 % of control; the T/C (endpoint: median survival time, dose: 50.0 mg/kg/injection, schedule: Q01DX005 (ip), vehicle: distilled water + Tween-80) was 102 % of control and 104 % of control; the T/C (endpoint: median survival time, dose: 72.0 mg/kg/injection, schedule: Q01DX005 (ip), vehicle: water) is 106 % of control and 111 % of control; the T/C (endpoint: median survival time, dose: 100.0 mg/kg/injection, schedule: Q01DX005 (ip), vehicle: distilled water + Tween-80) was 107 % of control; the T/C (endpoint: median survival time, dose: 108.0 mg/kg/injection, schedule: Q01DX005 (ip), vehicle: distilled water + Tween-80) was 118 % of control. Also, the T/C was 121 % of control and 123 % of control (endpoint: median survival time, dose: 120.0 mg/kg/injection, schedule: Q01DX005 (ip), vehicle: water); 124 % of control (endpoint: median survival time, dose: 180.0 mg/kg/injection, schedule: Q01DX005 (ip), vehicle: distilled water + Tween-80); 110 % of control (endpoint: median survival time, dose: 200.0 mg/kg/injection, schedule: Q01DX005 (ip), vehicle: distilled water + Tween-80); 325 % of control (endpoint: median survival time, dose: 333.3 mg/kg/injection, schedule: Q01DX005 (ip), vehicle: water); 196 % of control (endpoint: median survival time, dose: 333.33 mg/kg/injection, schedule: Q01DX005 (ip), vehicle: water); 204 % of control (endpoint: median survival time, dose: 500.0 mg/kg/injection, schedule: Q01DX005 (ip), vehicle: distilled water + Tween-80). Further, the T/C (endpoint: median survival time, dose: 555.55 mg/kg/injection, schedule: Q01DX005 (ip), vehicle: water) was 264 % of control.
Turning to `Cc1ccc(-n2c(O)c(C=N)c(=O)[nH]c2=O)cc1`, the T/C by setting is: under setting [3], 101 % of control; under setting [5], 97 % of control; under setting [4], 103 % of control.
`N#CCCOP(=O)(N1CC1)N1CC1`: the T/C was 100 % of control (endpoint: mean survival time, dose: 3.9 mg/kg/injection, schedule: Q01DX001 (ip), vehicle: Klucel (hydroxypropylcellulose) (HPC)); 104 % of control (endpoint: mean survival time, dose: 4.0 mg/kg/injection, schedule: Q01DX009 (ip), vehicle: water); 100 % of control (endpoint: mean survival time, dose: 7.8 mg/kg/injection, schedule: Q01DX001 (ip), vehicle: Klucel (hydroxypropylcellulose) (HPC)); 114 % of control (endpoint: mean survival time, dose: 8.0 mg/kg/injection, schedule: Q01DX009 (ip), vehicle: water); 109 % of control (endpoint: mean survival time, dose: 15.6 mg/kg/injection, schedule: Q01DX001 (ip), vehicle: Klucel (hydroxypropylcellulose) (HPC)); 122 % of control (endpoint: mean survival time, dose: 31.2 mg/kg/injection, schedule: Q01DX001 (ip), vehicle: Klucel (hydroxypropylcellulose) (HPC)). For the same compound, the T/C runs as follows: (endpoint: mean survival time, dose: 62.5 mg/kg/injection, schedule: Q01DX001 (ip), vehicle: Klucel (hydroxypropylcellulose) (HPC)) 121 % of control; (endpoint: mean survival time, dose: 64.0 mg/kg/injection, schedule: Q01DX009 (ip), vehicle: water) 90 % of control.
With `CC(=O)OC(c1ccc([N+](=O)[O-])cc1)c1ccccn1` (stereo not given), the T/C by setting is: (endpoint: mean survival time, dose: 100.0 mg/kg/injection, schedule: Q04DX003 (ip), vehicle: other) 96 % of control; (endpoint: mean survival time, dose: 200.0 mg/kg/injection, schedule: Q04DX003 (ip), vehicle: other) 93 % of control; (endpoint: mean survival time, dose: 400.0 mg/kg/injection, schedule: Q04DX003 (ip), vehicle: other) 93 % of control.
`C/C=C\C[P+](c1ccccc1)(c1ccccc1)c1ccccc1`: the T/C runs as follows: (endpoint: mean survival time, dose: 5.0 mg/kg/injection, schedule: Q01DX001 (ip), vehicle: saline with Tween-80) 101 % of control; (endpoint: mean survival time, dose: 5.0 mg/kg/injection, schedule: Q01DX009 (ip), vehicle: saline with Tween-80) 102 % of control; (endpoint: mean survival time, dose: 10.0 mg/kg/injection, schedule: Q01DX001 (ip), vehicle: saline with Tween-80) 104 % of control; (endpoint: mean survival time, dose: 10.0 mg/kg/injection, schedule: Q01DX009 (ip), vehicle: saline with Tween-80) 102 % of control; (endpoint: mean survival time, dose: 20.0 mg/kg/injection, schedule: Q01DX001 (ip), vehicle: saline with Tween-80) 104 % of control; (endpoint: mean survival time, dose: 20.0 mg/kg/injection, schedule: Q01DX009 (ip), vehicle: saline with Tween-80) 122 % of control.
As for `C[N+](C)(C)CC(O)c1ccccc1` (stereo not given), the T/C runs as follows: under setting [1], 100 % of control; under setting [2], 105 % of control; under setting [3], 95 % of control; under setting [5], 87 % of control.
For `CNc1ccn(C2OC(CO)C(O)C2SC(C)(C)C)c(=O)n1` (stereo not given), the T/C was 105 % of control (endpoint: median survival time, dose: 12.5 mg/kg/injection, schedule: Q01DX005 (ip), vehicle: saline); 105 % of control (endpoint: median survival time, dose: 25.0 mg/kg/injection, schedule: Q01DX005 (ip), vehicle: saline); 100 % of control (endpoint: median survival time, dose: 50.0 mg/kg/injection, schedule: Q01DX005 (ip), vehicle: saline); 102 % of control (endpoint: median survival time, dose: 100.0 mg/kg/injection, schedule: Q01DX005 (ip), vehicle: saline); 100 % of control (endpoint: median survival time, dose: 200.0 mg/kg/injection, schedule: Q01DX005 (ip), vehicle: saline).
